Tests used:
[1] = biological target: T1, Progesterone receptor (Homo sapiens, UniProt P06401); assay: (§1) Effective concentration of progesterone receptor agonist induction of alkaline phosphatase activity in human T47D breast carcinoma cells; type: functional, cell-based
T1 sequence (P06401 whole entry): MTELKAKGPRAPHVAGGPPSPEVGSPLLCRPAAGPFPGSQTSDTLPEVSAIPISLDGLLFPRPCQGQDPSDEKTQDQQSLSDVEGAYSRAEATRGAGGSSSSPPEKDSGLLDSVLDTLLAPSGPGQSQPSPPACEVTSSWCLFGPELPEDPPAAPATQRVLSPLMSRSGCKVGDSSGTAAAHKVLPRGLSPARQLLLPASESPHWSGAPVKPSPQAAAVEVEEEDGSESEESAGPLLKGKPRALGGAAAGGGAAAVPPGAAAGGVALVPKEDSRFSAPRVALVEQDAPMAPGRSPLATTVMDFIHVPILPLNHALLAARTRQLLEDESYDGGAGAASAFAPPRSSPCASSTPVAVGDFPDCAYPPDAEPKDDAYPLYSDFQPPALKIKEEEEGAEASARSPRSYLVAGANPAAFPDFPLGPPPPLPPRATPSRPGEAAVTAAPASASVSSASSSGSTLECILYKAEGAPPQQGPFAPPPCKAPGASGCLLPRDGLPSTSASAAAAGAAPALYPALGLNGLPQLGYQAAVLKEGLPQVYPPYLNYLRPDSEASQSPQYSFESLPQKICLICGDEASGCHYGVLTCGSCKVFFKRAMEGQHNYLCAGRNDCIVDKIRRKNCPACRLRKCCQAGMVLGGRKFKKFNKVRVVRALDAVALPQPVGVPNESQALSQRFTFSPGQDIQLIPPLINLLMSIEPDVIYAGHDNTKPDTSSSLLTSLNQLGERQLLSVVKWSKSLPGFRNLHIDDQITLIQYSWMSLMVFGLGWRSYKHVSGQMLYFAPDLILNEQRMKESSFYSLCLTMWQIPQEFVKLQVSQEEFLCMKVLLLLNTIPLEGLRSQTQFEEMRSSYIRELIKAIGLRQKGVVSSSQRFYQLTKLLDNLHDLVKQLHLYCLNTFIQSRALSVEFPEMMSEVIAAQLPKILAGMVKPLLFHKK

[2] = biological target: T2, Progesterone receptor (Rattus norvegicus) (UniProt Q63449); assay: Effective progestational dose on oral administration in rat decidualization model; type: functional, organism-based
T2 sequence (whole entry): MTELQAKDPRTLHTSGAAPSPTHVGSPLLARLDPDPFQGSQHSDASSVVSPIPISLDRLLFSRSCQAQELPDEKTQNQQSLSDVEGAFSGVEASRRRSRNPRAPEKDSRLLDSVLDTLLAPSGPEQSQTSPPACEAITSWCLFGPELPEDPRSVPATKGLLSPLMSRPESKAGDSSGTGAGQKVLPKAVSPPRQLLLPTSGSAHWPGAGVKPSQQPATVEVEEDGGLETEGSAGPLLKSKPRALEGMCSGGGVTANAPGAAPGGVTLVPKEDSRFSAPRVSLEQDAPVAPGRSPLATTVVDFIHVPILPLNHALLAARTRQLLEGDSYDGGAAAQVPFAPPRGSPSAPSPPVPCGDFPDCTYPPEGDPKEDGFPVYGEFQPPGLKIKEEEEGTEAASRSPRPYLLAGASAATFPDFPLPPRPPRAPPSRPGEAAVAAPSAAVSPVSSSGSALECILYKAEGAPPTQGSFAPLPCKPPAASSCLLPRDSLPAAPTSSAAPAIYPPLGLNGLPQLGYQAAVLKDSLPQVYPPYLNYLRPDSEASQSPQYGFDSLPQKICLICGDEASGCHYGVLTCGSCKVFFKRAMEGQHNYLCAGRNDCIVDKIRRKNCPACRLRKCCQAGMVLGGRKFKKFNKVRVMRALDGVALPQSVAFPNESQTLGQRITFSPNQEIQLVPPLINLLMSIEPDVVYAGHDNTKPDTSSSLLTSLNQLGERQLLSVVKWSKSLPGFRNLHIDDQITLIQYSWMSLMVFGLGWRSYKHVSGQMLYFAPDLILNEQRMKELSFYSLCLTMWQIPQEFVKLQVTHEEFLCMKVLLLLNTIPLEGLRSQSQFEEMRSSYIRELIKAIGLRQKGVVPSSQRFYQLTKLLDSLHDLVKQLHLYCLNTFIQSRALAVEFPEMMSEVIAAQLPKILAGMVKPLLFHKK

[3] = biological target: T3, Progesterone receptor (Rattus norvegicus, UniProt Q63449); assay: Inhibitory progestational activity on oral administration in uterine C3 model; type: functional, organism-based
T3 sequence (Q63449 whole entry): T2 sequence (whole entry)

[4] = biological target: T1, Progesterone receptor; assay: as §1; type: functional, cell-based; remark: listed apart in the source
[5] = biological target: T4, Glucocorticoid receptor (Homo sapiens, UniProt P04150); assay: Effective concentration against glucocorticoid receptor in human lung A549 cells
T4 sequence (P04150 whole entry): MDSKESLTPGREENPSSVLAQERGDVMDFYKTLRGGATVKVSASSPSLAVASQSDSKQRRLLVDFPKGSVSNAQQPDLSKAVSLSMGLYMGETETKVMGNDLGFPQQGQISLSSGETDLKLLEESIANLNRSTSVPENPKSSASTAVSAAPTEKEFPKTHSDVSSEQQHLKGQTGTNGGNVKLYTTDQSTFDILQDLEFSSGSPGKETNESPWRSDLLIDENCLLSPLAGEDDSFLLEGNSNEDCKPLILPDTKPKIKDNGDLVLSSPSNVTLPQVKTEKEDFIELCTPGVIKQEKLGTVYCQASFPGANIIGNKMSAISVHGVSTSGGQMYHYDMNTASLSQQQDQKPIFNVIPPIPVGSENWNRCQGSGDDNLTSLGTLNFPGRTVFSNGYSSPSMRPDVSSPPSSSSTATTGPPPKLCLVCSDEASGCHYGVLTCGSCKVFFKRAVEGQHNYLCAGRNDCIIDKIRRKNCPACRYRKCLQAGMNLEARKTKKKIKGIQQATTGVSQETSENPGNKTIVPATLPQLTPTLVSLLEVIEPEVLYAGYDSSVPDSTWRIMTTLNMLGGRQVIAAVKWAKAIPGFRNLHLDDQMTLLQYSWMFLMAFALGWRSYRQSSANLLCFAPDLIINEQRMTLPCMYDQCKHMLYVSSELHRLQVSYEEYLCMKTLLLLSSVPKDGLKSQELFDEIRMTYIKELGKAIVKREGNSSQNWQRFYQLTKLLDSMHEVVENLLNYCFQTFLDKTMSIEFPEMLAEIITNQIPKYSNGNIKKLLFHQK

[6] = biological target: T4, Glucocorticoid receptor; assay: Inhibitory activity against glucocorticoid receptor in human lung A549 cells
[7] = biological target: T1, Progesterone receptor; assay: Inhibition of 3 nM [3H]R5020 binding to progesterone receptor in human T47D cells; type: functional, cell-based
[8] = biological target: T5, Androgen receptor (Mus musculus, UniProt P19091); assay: Effective concentration against Androgen receptor in mouse fibroblast L929 cells
T5 sequence (P19091 whole entry): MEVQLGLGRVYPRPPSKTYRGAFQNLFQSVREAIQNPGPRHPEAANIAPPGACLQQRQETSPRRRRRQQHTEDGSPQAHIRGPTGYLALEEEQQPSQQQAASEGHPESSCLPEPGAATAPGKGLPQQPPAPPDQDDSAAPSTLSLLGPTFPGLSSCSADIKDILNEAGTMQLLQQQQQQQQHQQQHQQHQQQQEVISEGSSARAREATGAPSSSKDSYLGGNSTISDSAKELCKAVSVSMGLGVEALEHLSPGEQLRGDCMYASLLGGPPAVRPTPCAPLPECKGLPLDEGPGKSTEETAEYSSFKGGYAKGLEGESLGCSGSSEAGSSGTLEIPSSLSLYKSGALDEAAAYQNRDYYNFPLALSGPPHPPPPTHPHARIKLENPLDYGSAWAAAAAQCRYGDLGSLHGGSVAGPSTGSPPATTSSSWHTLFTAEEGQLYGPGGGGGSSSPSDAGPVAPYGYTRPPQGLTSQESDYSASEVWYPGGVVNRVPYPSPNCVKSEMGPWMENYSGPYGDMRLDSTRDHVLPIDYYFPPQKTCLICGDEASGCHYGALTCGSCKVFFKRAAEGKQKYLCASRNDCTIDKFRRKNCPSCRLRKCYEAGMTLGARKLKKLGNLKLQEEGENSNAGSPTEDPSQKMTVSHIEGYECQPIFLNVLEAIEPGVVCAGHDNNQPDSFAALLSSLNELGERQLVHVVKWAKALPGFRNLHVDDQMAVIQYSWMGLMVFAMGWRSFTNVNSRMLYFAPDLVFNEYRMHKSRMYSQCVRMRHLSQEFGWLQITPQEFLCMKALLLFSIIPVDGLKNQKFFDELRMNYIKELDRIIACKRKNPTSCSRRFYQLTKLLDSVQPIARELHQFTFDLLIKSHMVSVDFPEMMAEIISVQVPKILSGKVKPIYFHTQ

[9] = biological target: T5, Androgen receptor; assay: Inhibitory activity against Androgen receptor in mouse fibroblast L929 cells; type: cell-based

Row | Compound | EC50 [1] [nM] | other results
1 | Fc1ccc(-c2ccc3c(c2)C2(CCCCC2)C(S)=N3)cc1Cl | 4.3 | –
2 | N#Cc1cccc(-c2ccc3c(c2)C2(CCCCC2)C(=S)N3)c1 | 2 | ED50 [2]: 0.4 mg/kg; IC50 [3]: 0.3 mg/kg
3 | CC1(Cc2ccccc2)C(=S)Nc2ccc(-c3cccc(Cl)c3)cc21 (stereo not drawn) | 1200 | –
4 | Cc1cc(C#N)sc1-c1ccc2c(c1)C1(CCCCC1)C(S)=N2 | – | ED50 [2]: 1 mg/kg
5 | S=C1Nc2ccc(-c3ccccc3Cl)cc2C12CCCCC2 | 5.3 | –
6 | SC1=Nc2ccc(-c3cccc(Cl)c3)cc2C12CCCCC2 | – | ED50 [2]: > 3 mg/kg; IC50 [3]: 0.37 mg/kg
7 | CCC1(CC)C(=S)Nc2ccc(-c3cccc(Cl)c3)cc21 | 200 | –
8 | N#Cc1ccc(-c2ccc3c(c2)C2(CCCCC2)C(S)=N3)s1 | – | ED50 [2]: 0.1 mg/kg; IC50 [3]: 0.03 mg/kg
9 | Oc1cccc(-c2ccc3c(c2)C2(CCCCC2)C(S)=N3)c1 | 2.5 | –
10 | SC1=Nc2ccc(-c3cccc(-c4ccccc4)c3)cc2C12CCCCC2 | 71.4 | –
11 | N#Cc1cc(-c2ccc3c(c2)C2(CCCCC2)C(=S)N3)co1 | 1.9 | –
12 | Fc1ccc(-c2ccc3c(c2)C2(CCCCC2)C(S)=N3)cc1F | 5.4 | –
13 | N#Cc1cc(F)cc(-c2ccc3c(c2)C2(CCCCC2)C(S)=N3)c1 | 0.36 | EC50 [5]: > 10000 nM; IC50 [6]: 35 nM; ED50 [2]: 0.1 mg/kg; IC50 [7]: 15.9 nM; EC50 [8]: > 10000 nM; IC50 [9]: > 10000 nM; IC50 [3]: 0.025 mg/kg
14 | N#Cc1ccc(-c2ccc3c(c2)C2(CCCCC2)C(=S)N3)s1 | 1 | –
15 | S=C1Nc2ccc(-c3ccc(Cl)s3)cc2C12CCCCC2 | 1.4 | –
16 | N#Cc1cc(-c2ccc3c(c2)C2(CCCCC2)C(=S)N3)ccc1F | 4.2 | –
17 | CC(=O)O[C@]1(C(C)=O)CC[C@H]2[C@@H]3C[C@H](C)C4=CC(=O)CC[C@]4(C)[C@H]3CC[C@@]21C [MEDROXYPROGESTERONE ACETATE] | – | IC50 [3]: 0.026 mg/kg
18 | CCCCc1cc(C#N)sc1-c1ccc2c(c1)C1(CCCCC1)C(S)=N2 | 23.5 | –
19 | Cc1c(S)[nH]c2ccc(-c3cccc(Cl)c3)cc12 | > 3000 | –

Further lines, with some results ahead:

Row | EC50 [1] [nM] | Compound | other results
20 | 1.9 | N#Cc1ccc(-c2ccc3c(c2)C2(CCCCC2)C(S)=N3)o1 | ED50 [2]: 1 mg/kg
21 | 2000 | S=C1Nc2ccc(-c3ccc(Cl)cc3)cc2C12CCCCC2 | –
22 | 7.7 | CCCc1cc(C#N)sc1-c1ccc2c(c1)C1(CCCCC1)C(S)=N2 | –
23 | 0.5 | Cc1cc(C#N)sc1-c1ccc2c(c1)C1(CCCCC1)C(=S)N2 | –
24 | 2.6 | COc1cc(F)cc(-c2ccc3c(c2)C2(CCCCC2)C(=S)N3)c1 | –
25 | 9.8 | S=C1Nc2ccc(-c3cccc(Cl)c3)cc2C12CCCC2 | –
26 | 14.8 | N#Cc1ccc(-c2ccc3c(c2)C2(CCCCC2)C(S)=N3)cc1F | –
27 | > 3000 | CN1C(=S)C2(CCCCC2)c2cc(-c3cccc(Cl)c3)ccc21 | EC50 [4]: > 3000 nM
28 | 5 | CC1(C)C(=S)Nc2ccc(-c3cccc(Cl)c3)cc21 | –
29 | 1.4 | N#Cc1ccc(F)c(-c2ccc3c(c2)C2(CCCCC2)C(=S)N3)c1 | –
30 | 0.5 | Fc1cc(Cl)cc(-c2ccc3c(c2)C2(CCCCC2)C(=S)N3)c1 | –
31 | 0.8 | Fc1cc(F)cc(-c2ccc3c(c2)C2(CCCCC2)C(=S)N3)c1 | –
32 | 0.3 | N#Cc1cc(-c2ccc3c(c2)C2(CCCCC2)C(=S)N3)cs1 | –
33 | 1.6 | S=C1Nc2ccc(-c3cccc(Cl)c3)cc2C12CCCCC2 | –
34 | 1.6 | Fc1cccc(-c2ccc3c(c2)C2(CCCCC2)C(S)=N3)c1 | –
35 | 28.7 | S=C1Nc2ccc(-c3cccc(Cl)c3)cc2C12CCC2 | –
